Legend:
[1] = target: T1, RNF130 (Homo sapiens, UniProt Q86XS8); experiment: SPR, Biacore T200, amine-coupled RNF130 on CM5 chip; type: binding
T1 sequence (Q86XS8 28-304): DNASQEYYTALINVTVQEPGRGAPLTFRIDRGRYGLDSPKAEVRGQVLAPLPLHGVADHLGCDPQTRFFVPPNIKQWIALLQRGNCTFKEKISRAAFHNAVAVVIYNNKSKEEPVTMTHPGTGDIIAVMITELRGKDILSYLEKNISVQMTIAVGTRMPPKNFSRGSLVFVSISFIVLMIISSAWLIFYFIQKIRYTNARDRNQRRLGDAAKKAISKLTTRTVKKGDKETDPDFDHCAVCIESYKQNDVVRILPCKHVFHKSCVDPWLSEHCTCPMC

[2] = target: SPOP^MATH (Homo sapiens, UniProt O43791); experiment: fluorescence polarization, displacement of FITC-puc_SBC1 peptide; type: binding
Chain of SPOP^MATH (O43791 28-166): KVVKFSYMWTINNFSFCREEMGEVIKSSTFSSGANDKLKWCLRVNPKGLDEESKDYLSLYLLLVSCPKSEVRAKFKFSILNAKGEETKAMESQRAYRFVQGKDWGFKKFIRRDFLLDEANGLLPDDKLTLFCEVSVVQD

| Structure (SMILES) | Kd [1] [µM] | IC50 [2] [µM] |
| --- | --- | --- |
| CS(=O)(=O)c1nnc(CN2C3C=C(c4ccccc4)CC2CC3)s1 (stereo not drawn) [iRNF130-63] | 9.36 | – |
| Cc1nnc(SCC2=C(C(=O)O)N3C(=O)C(NC(=O)c4ccc(COc5ccccc5Cl)o4)C3SC2)s1 (stereo not drawn) [221C7] | – | 4.3 |
| CC(=O)OCC1=C(C(=O)O)N2C(=O)C(NC(=O)c3ccc(COc4ccc(Br)cc4Cl)o3)C2SC1 (stereo not drawn) [230D7, 3-(acetoxymethyl)-7-(5-((4-bromo-2-chlorophenoxy)methyl)furan-2-carboxamido)-8-oxo-5-thia-1-azabicyclo[4.2.0]oct-2-ene-2-carboxylic acid] | – | 8.7 |

Reference: publication doi:10.1101/2022.03.26.485909v4 (biorxiv, 2022)
